“Also recorded” adds a separate entry of the source.
Assays:
miR-22 in HCT116 cells [1] = assay: miR-22 induction in HCT116 cells treated with bile acids or HDAC inhibitors; type: cell-based, human
Experimental: A time course study in which HCT116 cells were treated by 150 μM CDCA for indicated times. […] Data are presented as mean+/−S.D. * denotes p<0.05.
Data are shown as mean+/−S.D. * p<0.05; ** p<0.01; ***p<0.001.
OCA is a semi-synthetic bile acid, which as the structure of 6α-ethyl-chenodeoxycholic acid.

[2] = system: FGF21 signaling and miR-22 in Huh7 cells; assay: mRNA and protein levels in Huh7 cells treated with OCA/INT-747, CDCA, butyrate or RA plus butyrate; type: cell-based, human; details: for mRNA and protein levels of FGF21, FGFR1 and PGC1α: OCA 5 or 20 μM
Experimental: (§1) Cell culture: Huh7 cells were obtained from Japanese Collection of Research Bioresources and maintained in DMEM with 10% FBS. Cells were treated with DMSO, OCA (5 or 20 μM; Apexbio Technology LLC, Houston, Tex., USA) in serum-free media for indicated time. Cells were plated (1×10^6 cells per 60-mm dish, 2×10^5 cells per 6-well plates, and 1×10^5 cells per 24-well plates) overnight prior to treatment or infection.
Gene expression quantification: Total RNA was extracted using TRIzol Reagent (Thermo Fisher Scientific, Waltham, Mass., USA), and cDNA was generated using High Capacity RNA-to-cDNA Kit (Applied Biosysterms, Carlsbad, Calif., USA). qRT-PCR was performed on ABI 7900HT Fast Real-time PCR system using Power SYBR® Green PCR Master Mix (Applied Biosysterms).
(§2) Western blot: Western blot was performed as described previously (26). Antibodies used were anti-FGFR1, FGF21, FASN, phosphor (P)-AMPK, total (T)-AMPK, phosphor (P)-ERK1/2, and total (T)-ERK1/2 (Cell Signaling Technology, Beverly, Mass., USA), β-ACTIN (MilliporeSigma), CD36 (Bioss Antibodies Inc., Woburn, Mass., USA), CYCLIN A2, PGC1α (Novus Biologicals, LLC, Littleton, Colo., USA), and PPARα (Santa Cruz Biotechnology, Santa Cruz, Calif., USA).

[3] = system: FGF21 signaling in Huh7 cells; assay: Huh7 cells infected/transfected with miR-22 or miR-22 inhibitors, mRNA and Western blot; type: cell-based, human; details: adenovirus control or miR-22 inhibitors followed by DMSO or OCA 5 μM for 6 h
Description: However, miR-22 was induced in the livers and adipose tissues of WD-fed mice (FIG. 15B). Similarly, using human liver biopsy specimens, miR-22 levels were positively associated with hepatic fat content and inversely correlated with the mRNA levels of PGC-1α, a key regulator of mitochondrial biogenesis (FIG. 15C). […] To study the downstream effects of miR-22, miR-22 mimics (ID: MIMAT0000077, […] (SEQ ID NO:2), Applied Biological Materials Inc.) were used to transfect human liver Huh7 cells.
as §1
Constructs and luciferase reporter assay: The 3′ untranslated region (3′-UTR) of the FGFR1 gene containing the putative binding site for miR-22 and the entire 3′-UTR of the FGF21 gene (105 bp) was cloned into the psiCHECK2 vector (Promega, Madison, Wis., USA) using NotI and XhoI. For cell infection, adenovirus (negative control), adenoviral-delivered miR-22 (miR-22), or adenoviral-miR-22 inhibitors (SEQ ID NO:1; Applied Biological Materials Inc., Richmond, BC) were used. Forty-eight h post infection, cells were transfected with psiCHECK2-FGR1-3′UTR or psiCHECK2-FGF21 3′UTR using Lipofectamine 2000 (Thermo Fisher Scientific). Twenty-four h later, cells were harvested for firefly and Renilla luciferase assay using the Dual-luciferase Reporter system (Promega). Renilla luciferase activity was standardized to firefly luciferase activity.
as §2

[4] = system: Western diet-induced obese C57BL/6 male mice; assay: WD-induced obese mice treated with OCA, miR-22 inhibitors or both for 3 weeks; type: in vivo, mouse
Experimental: Mice: C57BL/6 wild-type (WT) male mice (Charles River Laboratories, Inc., Wilmington, Mass., USA) were housed in regular filter-top cages at 22° C. with a 12 h/12 h light/dark cycle. For Western diet (WD)-induced obesity models, mice were fed a WD (21% fat, 34% sucrose, and 0.2% cholesterol, w/w) or control diet (CD 5% fat, 12% sucrose, and 0.01% cholesterol, w/w; Harlan Teklad, Indianapolis, Ind., USA) after weaning (3 weeks). When those mice were 7-months old, WD-fed mice were randomly assigned to […] and received vehicle (0.5% carboxyl methyl cellulose sodium), OCA ([…], daily, oral gavage), miR-22 inhibitors (1×10^9 PFU, tail vein injection, once a week), and the combination of OCA and miR-22 inhibitors for three weeks. For alcohol-induced steatosis models, 3-month-old C57BL/6 male mice were initially fed a control Lieber-DeCarli diet (F1259SP, Bio-Serv, Flemington, N.J., USA) ad libitum for 5 days followed by 5% alcohol supplementation for 21 days (F1258SP, Bio-Serv). Then, those alcohol-fed mice received adenovirus (negative control) or miR-22 inhibitors (1×10^9 PFU, tail vein injection, 3 times in 10 days). All the mice were euthanized 1 day after the last viral injection. Animal experiments were conducted in accordance with the National Institutes of Health Guide for the Care and Use of Laboratory Animals under protocols approved by the Institutional Animal Care and Use Committee of the University of California, Davis.
Biochemical analysis: Hepatic triglyceride and cholesterol (BioAssay Systems, Hayward, Calif., USA) levels and serum lipopolysaccharide (LPS) (Thermo Fisher Scientific), alanine transaminase (ALT) (Pointe Scientific), and alkaline phosphatase (ALP) (Pointe Scientific) levels were quantified according to the manufacturer's instructions.
Insulin tolerance test: After 6 h food deprivation, tail vein blood was used to establish fasting blood glucose levels. For insulin tolerance testing, insulin (1 U/kg body weight, i.p.; MilliporeSigma, Burlington, Mass., USA) was given followed by measuring blood glucose level at various times with the OneTouch Ultra 2 (Johnson & Johnson Co., New Brunswick, N.J., USA). The area under the curve (AUC) of the blood glucose levels over time was calculated.
Serum FGF21 and glucagon-like peptide (GLP-1) secretion assay: Serum FGF21 levels were quantified by ELISA (Boster Biological Technology, Pleasanton, Calif., USA). For GLP-1 secretion assays, mice were unfed for 12 h followed by orally administration of dipeptidyl peptidase-4 inhibitor, sitagliptin ([…]; TSZ Chem, Framingham, Mass., USA) and a liquid diet (Ensure Plus, […]; Ross Laboratories, Columbus, Ohio, USA), which contains 15% protein, 57% carbohydrate, and 28% fat to stimulate GLP-1 secretion, as previously described (25). Blood samples were collected immediately (time 0) as well as 15, and 30 min after Ensure Plus feeding. Serum GLP-1 was quantified by a ELISA kit (RayBiotech Life, Norcross, Ga., USA).

miR-22 in HCT116 cells [5] = assay: miR-22 induction in HCT116 cells treated with bile acids or HDAC inhibitors; type: cell-based, human; remark: listed apart in the source
[6] = system: patients with NASH and T2DM; details: cited from earlier work
[7] = system: hepatic inflammation and fibrosis; details: 30 mg/kg/day, gavage, every 2 days for 4 weeks; cited from earlier work
[8] = 1-day treatment, SAHA (5, butyrate 5 mM, propionate 10 mM, valerate 10 mM)

## CC[C@H]1[C@@H](O)[C@@H]2[C@H](CC[C@]3(C)[C@@H]([C@H](C)CCC(=O)O)CC[C@@H]23)[C@@]2(C)CC[C@@H](O)C[C@@H]12 [OCA, obeticholic acid]
miR-22 in HCT116 cells [1]
  CCNA2 expression: reduced CCNA2
  FXR target FGF19 expression: induced FXR target FGF19
[2]; 6 h
  miR-22 level: induced miR-22
[2]; 6 hours
  AMPK and ERK1/2 activation: activated AMPK and ERK1/2
  βKlotho protein level: modestly increased
  mRNA and protein levels of FGF21, FGFR1 and PGC1α: induced FGF21 signaling by increasing the expression of FGF21, FGF21 receptor (FGFR1), and PGC1α; also recorded: increased mRNA and protein levels of FGF21 and FGFR1 as well as PGC1α
[2]; 6 hours, listed as INT-747
  mRNA and protein levels of FGF21, FGFR1 and PGC1α: markedly increased the mRNA and protein level of FGF21 and FGFR1
[3]
  FGF21, FGFR1, P-AMPK, and P-ERK1/2 protein levels: same effects in increasing FGF21, FGFR1, P-AMPK, and P-ERK1/2
[4]; WD-fed 7-month-old mice, 3 weeks, OCA 10 mg/g body weight daily oral gavage, miR-22 inhibitors 1×10^9 PFU once a week
  hepatic fat accumulation (steatosis score): reduced hepatic fat accumulation
[4]; WD-fed mice, 3 weeks treatment
  hepatic cholesterol level: reduced hepatic cholesterol level
  hepatic triglyceride levels: did not significantly reduce hepatic triglyceride levels
  release of GLP-1 (serum): stimulated the release of GLP-1
  serum FGF21 level: reduced
[4]; diet-induced obese mice
  hepatic FASN and CD36: reduced FASN and CD36
  hepatic FGF21 and FGFR1: induced hepatic FGF21 and FGFR1
[4]; reduced by WD intake
  expression of hepatic Pepck, G6pase, and Fbp1: reversed those reductions
miR-22 in HCT116 cells [5]; 24 hours, CDCA 50, 100, 150 μM, OCA 25 and 50 μM
  miR-22 level: induced miR-22
[6]; clinical trials, 19% in the placebo group, p<0.05
  patients with fibrosis having ≥1 stage of fibrosis improvement: 41%
[6]; clinical trials, 21% in the placebo group, p<0.01
  patients reaching the primary endpoint of a ≥2-point improvement in NAFLD activity score without worsening fibrosis: 57%
[6]; clinical trials
  insulin sensitivity: improves insulin sensitivity
  markers of liver inflammation and fibrosis: reduced markers of liver inflammation and fibrosis
[6]; overdose
  deaths and liver injury: caused deaths and liver injury
[7]
  hepatic inflammation and fibrosis: reduces hepatic inflammation and fibrosis

## O=C(CCCCCCC(=O)Nc1ccccc1)NO [SAHA, suberanilohydroxamic acid]
miR-22 in HCT116 cells [5]; [8]
  miR-22 level: induced miR-22

## CC(=O)O [acetate]
miR-22 in HCT116 cells [5]; [8]
  miR-22 level: not able to induce miR-22

## O=CO [formate]
miR-22 in HCT116 cells [5]; [8]
  miR-22 level: not able to induce miR-22

## CCC(=O)O [propionate]
miR-22 in HCT116 cells [5]; [8]
  miR-22 level: induced miR-22

## CCCCC(=O)O [valerate]
miR-22 in HCT116 cells [5]; [8]
  miR-22 level: induced miR-22
